In US5420140A, “Difluorinated quinolones useful for treating bacterial infections” (Bouchara S.A., priority 1991, dated 1995):
Converted amounts (≈) assume the structure as drawn.

Key:
S. aureus CB-951 = test: Determination of MIC and MBC by microdilution method, S. aureus CB-951; assay type: cell-based, Staphylococcus aureus; settings: erythromycinolincomycino, pefloxacino resistant; for MIC / MBC: Staphylococcus aureus; for MIC: CB951, 18 h, read-out: Minimal inhibitory concentration (MIC); for MIC / Minimal bactericidal concentration (MBC) / Minimal inhibitory concentration (MIC): S. aureus CB-951, methicillino; for MIC / Minimal inhibitory concentration (MIC): Mueller-Hinton broth, 18 hours at 37°; for MBC: CB951, S. aureus CB-951, methicillino, read-out: Minimal bactericidal concentration (MBC)
Method: (§1) The compound have been tested towards 7 reference strains:
Staphylococcus aureus CB 951
(§2) The determination of minimal inhibitory concentrations (MIC) has been performed using a microdution method (microplates and inoculator Dynatech) in liquid medium (MUELLER-HINTON broth) under a volume of 100 μl and for a range of concentrations from 128 to 0.06 mg/l, prepared from a mother liquor of antibiotics titrating 512 mg/l. The preparation of these mother liquors has been performed and vary depending on the molecules as a function of the solubility criterions. Inoculation has been done by adding in each will, 10 μl of a dilution in saline of 18 hours old broth in a brain-heart broth, such as each well contains about 10^6 bacterias/ml.
(§3) The Minimal Inhibitory Concentrations are read as the first concentration of antibiotic which will not give a growth macroscopically detectable after 18 hours incubating at 37°.

[1] = test system: Pseudomonas aeruginosa ATCC 22853; test: Determination of MIC and MBC by microdilution method, Pseudomonas aeruginosa ATCC 22853; assay type: cell-based; settings: for MIC / MBC: Pseudomonas aeruginosa; for MIC: ATCC22853, 18 h, read-out: Minimal inhibitory concentration (MIC); for MIC / Minimal bactericidal concentration (MBC) / Minimal inhibitory concentration (MIC): P. aeruginosa ATCC 22853; for MIC / Minimal inhibitory concentration (MIC): Mueller-Hinton broth, 18 hours at 37°; for MBC: ATCC22853, P. aeruginosa ATCC 22853, read-out: Minimal bactericidal concentration (MBC)
Method: as §1
Pseudomonas aeruginosa ATCC 22853
(§4) The preparation of these mother liquors has been performed and vary depending on the molecules as a function of the solubility criterions. Inoculation has been done by adding in each will, 10 μl of a dilution in saline of 18 hours old broth in a brain-heart broth, such as each well contains about 10^6 bacterias/ml. […]

[2] = test system: Acinetobacter Baumanii ATCC 17904; test: Determination of MIC and MBC by microdilution method, Acinetobacter; assay type: cell-based; settings: for MIC / MBC: Acinetobacter baumannii; for MIC: ATCC17904, 18 h, read-out: Minimal inhibitory concentration (MIC); for MIC / Minimal bactericidal concentration (MBC) / Minimal inhibitory concentration (MIC): Acinetobacter Baumanii ATCC 17904; for MIC / Minimal inhibitory concentration (MIC): Mueller-Hinton broth, 18 hours at 37°; for MBC: ATCC17904, Acinetobacter Baumanii ATCC 17904, read-out: Minimal bactericidal concentration (MBC)
Method: The compound have been tested towards 7 reference strains: […]
as §2, §3

[3] = test system: Staphylococcus aureus ATCC 25923; test: Determination of MIC and MBC by microdilution method, Staphylococcus aureus ATCC 25923; assay type: cell-based; settings: for MIC / MBC: Staphylococcus aureus; for MIC: ATCC25923, 18 h, read-out: Minimal inhibitory concentration (MIC); for MIC / Minimal bactericidal concentration (MBC) / Minimal inhibitory concentration (MIC): S. aureus ATCC 25923; for MIC / Minimal inhibitory concentration (MIC): Mueller-Hinton broth, 18 hours at 37°; for MBC: ATCC25923, S. aureus ATCC 25923, read-out: Minimal bactericidal concentration (MBC)
Method: as §1
Staphylococcus aureus ATCC 25923
as §2, §3

[4] = test system: Bacillus subtilis ATCC 9372; test: Determination of MIC and MBC by microdilution method, Bacillus subtilis ATCC 9372; assay type: cell-based; settings: for MIC: ATCC9372, Mueller-Hinton broth, read-out: Minimal inhibitory concentration (MIC); for MIC / Minimal inhibitory concentration (MIC): 18 hours at 37°; for MBC: ATCC9372, read-out: Minimal bactericidal concentration (MBC); for Minimal inhibitory concentration (MIC): Mueller-Hinton broth
Method: as §1
Bacillus subtilis ATCC 9372
as §2, §3

[5] = test system: Streptococcus faecalis ATCC 8043; test: Determination of MIC and MBC by microdilution method, Streptococcus faecalis ATCC 8043; assay type: cell-based; settings: for MBC / MIC: Enterococcus faecalis; for MBC: ATCC8043, S. faecalis ATCC 8043, read-out: Minimal bactericidal concentration (MBC); for MIC: ATCC8043, read-out: Minimal inhibitory concentration (MIC); for MIC / Minimal bactericidal concentration (MBC) / Minimal inhibitory concentration (MIC): S. faecalis ATCC 8043; for MIC / Minimal inhibitory concentration (MIC): Mueller-Hinton broth, 18 hours at 37°
Method: as §1
Streptococcus faecalis ATCC 8043
as §4

[6] = test system: Escherichia coli ATCC 25922; test: Determination of MIC and MBC by microdilution method, Escherichia coli ATCC 25922; assay type: cell-based; settings: E. coli ATCC 25922; for MIC / MBC: Escherichia coli, ATCC25922; for MIC / Minimal inhibitory concentration (MIC): Mueller-Hinton broth, 18 hours at 37°; for MIC: read-out: Minimal inhibitory concentration (MIC); for MBC: read-out: Minimal bactericidal concentration (MBC)
Method: as §1
Escherichia coli ATCC 25922
as §2, §3

| SMILES | MIC (S. aureus CB-951) [µg/mL] | MBC (S. aureus CB-951) [µg/mL] | MIC [1] [µg/mL] | MBC [1] [µg/mL] | MIC [2] [µg/mL] | MBC [2] [µg/mL] | MIC [3] [µg/mL] | MBC [3] [µg/mL] | MIC [4] [µg/mL] | MBC [4] [µg/mL] | MBC [5] [µg/mL] | MIC [5] [µg/mL] | MIC [6] [µg/mL] | MBC [6] [µg/mL] | Minimal bactericidal concentration (MBC) (S. aureus CB-951) [µg/mL] | Minimal inhibitory concentration (MIC) (S. aureus CB-951) [µg/mL] | Minimal bactericidal concentration (MBC) [1] [µg/mL] | Minimal inhibitory concentration (MIC) [1] [µg/mL] | Minimal bactericidal concentration (MBC) [2] [µg/mL] | Minimal inhibitory concentration (MIC) [2] [µg/mL] | further results |
| --- | --- | --- | --- | --- | --- | --- | --- | --- | --- | --- | --- | --- | --- | --- | --- | --- | --- | --- | --- | --- | --- |
| CCn1cc(C(=O)O)c(=O)c2cc(F)c(N3CCC(CN)CC3)c(F)c21 [Compound 1, 7-(4-aminomethylpiperidinyl-1) 6,8-difluoro 1-ethyl 4-oxo 1,4-dihydroquinoleinyl-3 carboxylic acid] | 2 (≈ 5.47 µM) | 2 (≈ 5.47 µM) | 2 (≈ 5.47 µM) | 4 (≈ 10.9 µM) | 0.25 (≈ 0.684 µM) | 0.5 (≈ 1.37 µM) | 0.25 (≈ 0.684 µM) | 0.25 (≈ 0.684 µM) | 0.25 (≈ 0.684 µM) | 0.25 (≈ 0.684 µM) | 0.5 (≈ 1.37 µM) | 0.5 (≈ 1.37 µM) | 0.5 (≈ 1.37 µM) | 0.5 (≈ 1.37 µM) | – | – | – | – | – | – | – |
| C=CCn1cc(C(=O)O)c(=O)c2cc(F)c(N3CCC(CNC(=O)NC(=O)c4ccccc4)CC3)c(F)c21 [Compound 11, 7-[(4-benzoylaminocarboxamidomethyl)piperidinyl-1] 6,8-difluoro 1-allyl 4-oxo 1,4-dihydroquinoleinyl-3 carboxylic acid] | – | – | – | – | – | – | – | – | – | – | – | – | – | – | 4 (≈ 7.63 µM) | 4 (≈ 7.63 µM) | > 128 | 128 (≈ 244 µM) | 4 (≈ 7.63 µM) | 1 (≈ 1.91 µM) | Minimal bactericidal concentration (MBC) [3]: 4 µg/mL (≈ 7.63 µM); Minimal inhibitory concentration (MIC) [3]: 1 µg/mL (≈ 1.91 µM); Minimal bactericidal concentration (MBC) [4]: 1 µg/mL (≈ 1.91 µM); Minimal inhibitory concentration (MIC) [4]: 0,5 μg/ml; Minimal bactericidal concentration (MBC) [5]: 32 µg/mL (≈ 61 µM); Minimal inhibitory concentration (MIC) [5]: 16 µg/mL (≈ 30.5 µM); Minimal bactericidal concentration (MBC) [6]: > 128 µg/mL; Minimal inhibitory concentration (MIC) [6]: 128 µg/mL (≈ 244 µM) |
| C=CCn1cc(C(=O)O)c(=O)c2cc(F)c(N3CCC(NC(C)=O)CC3)c(F)c21 [Compound 9, 7-(4-acetylaminopiperidinyl-1) 6,8-difluoro 1-allyl 4-oxo 1,4-dihydroquinoleinyl-3 carboxylic acid] | – | – | – | – | – | – | – | – | – | – | – | – | – | – | 8 (≈ 19.7 µM) | 4 (≈ 9.87 µM) | > 128 | > 128 | 8 (≈ 19.7 µM) | 4 (≈ 9.87 µM) | Minimal bactericidal concentration (MBC) [3]: 4 µg/mL (≈ 9.87 µM); Minimal inhibitory concentration (MIC) [3]: 1 µg/mL (≈ 2.47 µM); Minimal bactericidal concentration (MBC) [4]: 2 µg/mL (≈ 4.93 µM); Minimal inhibitory concentration (MIC) [4]: 1 µg/mL (≈ 2.47 µM); Minimal bactericidal concentration (MBC) [5]: 16 µg/mL (≈ 39.5 µM); Minimal inhibitory concentration (MIC) [5]: 4 µg/mL (≈ 9.87 µM); Minimal bactericidal concentration (MBC) [6]: 32 µg/mL (≈ 78.9 µM); Minimal inhibitory concentration (MIC) [6]: 16 µg/mL (≈ 39.5 µM) |
| C=CCn1cc(C(=O)O)c(=O)c2cc(F)c(N3CCC(CN)CC3)c(F)c21 [Compound 6, 7-(4-aminomethylpiperidinyl-1) 6,8-difluoro 1-allyl 4-oxo 1,4-dihydroquinoleinyl-3 carboxylic acid] | 32 (≈ 84.8 µM) | 64 (≈ 170 µM) | 8 (≈ 21.2 µM) | 16 (≈ 42.4 µM) | 1 (≈ 2.65 µM) | 2 (≈ 5.3 µM) | 1 (≈ 2.65 µM) | 2 (≈ 5.3 µM) | 1 (≈ 2.65 µM) | 2 (≈ 5.3 µM) | 4 (≈ 10.6 µM) | 1 (≈ 2.65 µM) | 1 (≈ 2.65 µM) | 2 (≈ 5.3 µM) | – | – | – | – | – | – | – |
